The source of these data is patent US20240025919A1, “AZA-TETRACYCLIC OXAZEPINE COMPOUNDS AND USES THEREOF” (Genentech, Inc., priority 2022, published 2024).

SMILES strings stand for the structures. Where “and” joins values, the source holds several entries; their conditions need not be identical. Equal entries are not always repeated. Where two headings read alike, the source gives them in different places.

Test [1] concerns the target T1, KRAS WT (Homo sapiens (Human), UniProt P01116). As to the kind of experiment: KRAS WT Biochemical Assay, BODIPY-GDP Exchange TR-FRET (Example 501; 3 nM KRAS WT, 3 nM SOS1, 60-minute incubation). In outline:
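SOS1-mediated exchange assay: 3 nM biotin-KRAS WT with terbium-streptavidin, started with 3 nM SOS1 and 300 nM BODIPY-GDP, HEPES pH 7.5 with MgCl2. TR-FRET (520/490 nm) read after 60 min; normalized to DMSO and full-inhibition control, IC50 from 4-parameter Hill fit.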
A general note: Time-resolved FRET reads energy transfer from a long-lived donor to a nearby acceptor.

For test [2], the system named is PC-9 (KRAS wild type human lung adenocarcinoma cell line). The test is described as follows: KRAS 3D-Cell Proliferation Assay, PC-9 (CellTiter-Glo 3D, 7 days). In kind it is cell-based. The note with it: PC-9 3D culture, read-out: Prolif PC9 3D ATP IC50. Here is the method:
(§1) Example 503: KRAS 3D-Cell Proliferation Assays. Cellular potencies of compounds are assessed by evaluating inhibition of proliferation in 3D cultures of homozygous mutant KRAS G12D human pancreatic cell lines (AsPC-1 and HPAC) as compared to a KRAS wild type human lung adenocarcinoma cell line (PC-9 and/or H1975). Cells are seeded into 384-well black round-bottom, ultra-low attachment assay plates in 50 uL cell growth medium (RPMI-1640 with 10% fetal bovine serum and 2 mM L-glutamine). After overnight incubation at 37° C. and 5% CO2, compounds solubilized in DMSO are added as dilution series to the wells in a total volume of 150 nL (0.3% DMSO final). The cells are incubated for 7 days at 37° C. and 5% CO2. Cell proliferation is quantitated by addition of 40 uL/well of CellTiter-GloO 3D (Promega), and the well contents are mixed 20× at high speed using liquid handling automation workstation (Bravo with 384-well head) and centrifuged at 1500 rpm for 2 minutes to eliminate bubbles. This reagent in combination with mechanical disruption releases the cellular ATP to promote activity in a luciferase-based enzyme/substrate chemiluminescent detection system. After a 30-minute incubation under ambient conditions with shaking and an additional 10 minutes without shaking, the luminescence is read on a plate reader (e.g. EnVision [PerkinElmer]). The results are normalized to percent inhibition based on the following control samples: DMSO (0% inhibition) and 1 uM staurosporine (100% inhibition). The normalized luminescence results are plotted against compound concentration, and the data are fit to a 4-parameter Hill equation to determine the IC50 values.
For orientation: Cellular ATP, detected with luciferase, serves as a proxy for viable cell number.

The next test addresses KRAS G12D (Homo sapiens (Human), UniProt P01116, G12D). As to the kind of experiment: KRAS G12D LoEnz Biochemical Assay, BODIPY-GDP Exchange TR-FRET (SOS1-mediated nucleotide exchange). The note with it: read-out: KRas (G12D) GDP HTRF IC50.
The target in test [3] is T1, KRAS WT. The test is described as follows: KRAS WT Biochemical Assay, BODIPY-GDP Exchange TR-FRET (Example 502; 0.06 nM KRAS WT, 15 nM GDP, 300 nM SOS1, 120-minute incubation). The conditions noted are these: read-out: KRas HTRF IC50. The method in brief: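 IC50 from a 4-parameter Hill fit of percent inhibition, itself the TR-FRET 520/490 nm ratio scaled between DMSO and a fully inhibiting control. Reaction: 300 nM SOS1 and 300 nM BODIPY-GDP added to preformed 0.06 nM KRAS WT/15 nM GDP/Tb-streptavidin complex; 120 min incubation; pH 7.5 HEPES, MgCl2, DTT.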

Test [4] deals with HPAC (homozygous mutant KRAS G12D human pancreatic cell line). The test is described as follows: KRAS 3D-Cell Proliferation Assay, HPAC (CellTiter-Glo 3D, 7 days). The conditions noted are these: HPAC 3D culture, read-out: Prolif HPAC 3D ATP IC50. The class given is cell-based. As to the method: as §1
In test [5] the test system is H1975 (KRAS wild type human lung adenocarcinoma cell line). As to the kind of experiment: KRAS 3D-Cell Proliferation Assay, H1975 (CellTiter-Glo 3D, 7 days). The conditions noted are these: H1975 3D culture, read-out: Prolif H1975 3D ATP IC50. The class given is cell-based. Here is the method: as §1
The mark [6] stands for this setting: read-out: KRas(wt) GDP HTRF IC50.

T1 sequence (P01116-2 other isoform, or with tags, fused parts or gaps): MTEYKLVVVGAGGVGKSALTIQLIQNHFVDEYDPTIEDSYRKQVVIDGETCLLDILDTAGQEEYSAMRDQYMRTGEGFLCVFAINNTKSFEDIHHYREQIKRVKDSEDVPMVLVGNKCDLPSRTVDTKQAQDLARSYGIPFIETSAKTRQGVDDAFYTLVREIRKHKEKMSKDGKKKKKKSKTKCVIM
KRAS G12D, sequence (P01116-2 other isoform, or with tags, fused parts or gaps G12D): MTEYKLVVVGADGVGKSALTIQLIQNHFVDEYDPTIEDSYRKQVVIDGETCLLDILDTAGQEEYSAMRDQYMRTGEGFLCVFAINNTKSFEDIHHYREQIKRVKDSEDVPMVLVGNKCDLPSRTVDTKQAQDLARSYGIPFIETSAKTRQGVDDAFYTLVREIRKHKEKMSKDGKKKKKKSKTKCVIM

Take `C[C@@H]1Oc2nc(-c3cccc4cccc(Cl)c34)c(F)c3nc(OCC45CCN4CC(F)(F)C5)nc(c23)N2C[C@H]3CC[C@H](N3)[C@@H]12` (single isomer, unassigned) [Compound 21]: the IC50 at KRAS WT [1] (setting [6]) was 3890 nM and 1400 nM; in test [2], 8130 nM.
In the case of `Cc1cc(N)nc(-c2nc3c4c(nc(OC[C@]56CCN5CC(F)(F)C6)nc4c2F)N2C[C@H]4CC[C@H](N4)[C@H]2[C@H](C)O3)c1C(F)(F)F` (single isomer, unassigned) [Compound 45], the IC50 on KRAS WT [1] (setting [6]) was 69.4 nM and 319 nM; in test [2] (Homo sapiens, PC-9, 168 h), 20000 nM.
Turning to `Cc1cc(N)c(F)c(-c2nc3c4c(ncnc4c2Cl)N2C[C@H]4CC[C@H](N4)[C@H]2[C@H](C)O3)c1C(F)(F)F` (single isomer, unassigned) [Compound 94], the 50% inhibitory concentration (IC50) at KRAS G12D turned out to be 2300 nM; at KRAS WT [3] it was 200000 nM; in test [4], 2230 nM; in test [5], 15200 nM.
Take `Cc1c(F)c(N)cc(-c2nc3c4c(nc(OC[C@H]5CC[C@@H]6CN(C)C(=O)CN56)nc4c2F)N2C[C@H]4CC[C@H](N4)[C@H]2[C@H](C)O3)c1C(F)(F)F` (single isomer, unassigned) [131 (isomer 3)]: the IC50 was 2.07 nM at KRAS G12D, 249 nM at KRAS WT [3], 77.4 nM in test [4] and 8850 nM in test [5].
As for `Cc1c(F)c(N)cc(-c2nc3c4c(nc(OCC5CCC6CC(F)(F)CN56)nc4c2F)N2C[C@H]4CC[C@H](N4)[C@H]2[C@H](C)O3)c1C(F)(F)F` (single isomer, unassigned) [153 (isomer 1)], the IC50 was found to be 0.37 nM at KRAS G12D; 90.9 nM on KRAS WT [3]; 19 nM in test [4]; 4740 nM in test [5] (Homo sapiens, NCI-H1975, 168 h).
Consider `Cc1c(F)c(N)cc(-c2nc3c4c(nc(OCC56CCCN5CC(F)C6F)nc4c2F)N2C[C@H]4CC[C@H](N4)[C@H]2[C@H](C)O3)c1C(F)(F)F` (single isomer, unassigned) [143 (isomer 2)], for which the IC50 is 0.26 nM at KRAS G12D; 33.5 nM on KRAS WT [3]; 3.52 nM in test [4] (Homo sapiens, HPAC, 168 h); 1130 nM in test [5] (Homo sapiens, NCI-H1975, 168 h).
Consider `Cc1c(F)c(N)cc(-c2nc3c4c(nc(OC[C@@]56CCCN5[C@@H](C(F)F)CC6)nc4c2F)N2C[C@H]4CC[C@H](N4)[C@H]2[C@H](C)O3)c1C(F)(F)F` (single isomer, unassigned) [130 (isomer 1)], for which the IC50 on KRAS G12D is 2.26 nM; on KRAS WT [3], 460 nM; in test [4], 44.7 nM; in test [5] (Homo sapiens, NCI-H1975, 168 h), 2830 nM.
Take `Cc1c(F)c(N)cc(-c2nc3c4c(nc(OC[C@H]5CC[C@@H]6CN(C)C(=O)CN56)nc4c2F)N2C[C@H]4CC[C@H](N4)[C@H]2[C@H](C)O3)c1C(F)(F)F` (single isomer, unassigned) [131 (isomer 2)]: the IC50 on KRAS G12D stood at 1.31 nM; on KRAS WT [3], 293 nM; in test [4], 342 nM; in test [5], 20000 nM.
The corresponding values for `Cc1c(F)c(N)cc(-c2nc3c4c(nc(OC[C@@]56CCCN5CC5(CC5(F)F)C6)nc4c2F)N2C[C@H]4CC[C@H](N4)[C@H]2[C@@H](C)O3)c1C(F)(F)F` (stereo partly shown) [compound 63] are 0.15 nM, 21.7 nM, 82.4 nM and 20800 nM.
Turning to `Cc1c(F)c(N)cc(-c2nc3c4c(nc(OCC5C[C@@H]6C[N@@]5CCO6)nc4c2F)N2C[C@H]4CC[C@H](N4)[C@H]2[C@H](C)O3)c1C(F)(F)F` (single isomer, unassigned) [151 (isomer 2)], the IC50 was 0.12 nM on KRAS G12D; 25.5 nM at KRAS WT [3]; 8.04 nM in test [4] (Homo sapiens, HPAC, 168 h); 1690 nM in test [5] (Homo sapiens, NCI-H1975, 168 h).
As for `Cc1c(F)c(N)cc(-c2nc3c4c(nc(OC[C@]5(CN6C[C@H]7C[C@@H]6CO7)CC5(F)F)nc4c2F)N2C[C@H]4CC[C@H](N4)[C@H]2[C@H](C)O3)c1C(F)(F)F` (single isomer, unassigned) [166 a], the concentration for half-maximal inhibition (IC50) at KRAS G12D is 0.1 nM; at KRAS WT [3], 3.68 nM; in test [4] (Homo sapiens, HPAC, 168 h), 1.44 nM; in test [5], 1270 nM.
Take `Cc1c(F)c(N)cc(-c2nc3c4c(nc(OC[C@@]56CCCN5[C@@H](C(F)F)CC6)nc4c2F)N2C[C@H]4CC[C@H](N4)[C@H]2[C@H](C)O3)c1C(F)(F)F` (single isomer, unassigned) [130 (isomer 2)]: the IC50 at KRAS G12D stood at 0.92 nM; at KRAS WT [3], 174 nM; in test [4], 15.8 nM; in test [5], 2900 nM.
Regarding `Cc1c(F)c(N)cc(-c2nc3c4c(nc(OC[C@@H]5C[C@@H]6C[N@@]5CCO6)nc4c2F)N2C[C@H]4CC[C@H](N4)[C@H]2[C@H](C)O3)c1C(F)(F)F` (single isomer, unassigned) [151 (isomer 1)], the concentration for half-maximal inhibition (IC50) on KRAS G12D was determined as 1.84 nM; on KRAS WT [3], 398 nM; in test [4] (Homo sapiens, HPAC, 168 h) it was 323 nM; in test [5] (Homo sapiens, NCI-H1975, 168 h) it was 20000 nM.
In the case of `Cc1c(F)c(N)cc(-c2nc3c4c(nc(OCC5CCC6CC(F)(F)CN56)nc4c2F)N2C[C@H]4CC[C@H](N4)[C@H]2[C@H](C)O3)c1C(F)(F)F` (single isomer, unassigned) [153 (isomer 2)], the IC50 at KRAS G12D worked out at 0.32 nM; on KRAS WT [3], 87.6 nM; in test [4], 13.4 nM; in test [5], 4180 nM.
On to `Cc1c(F)c(N)cc(-c2nc3c4c(nc(OCC5CCC6CC(F)(F)CN56)nc4c2F)N2C[C@H]4CC[C@H](N4)[C@H]2[C@H](C)O3)c1C(F)(F)F` (single isomer, unassigned) [153 (isomer 3)], for which the 50% inhibitory concentration (IC50) on KRAS G12D is 0.55 nM; on KRAS WT [3], 125 nM; in test [4] it was 32.9 nM; in test [5] it was 4490 nM.
On to `Cc1c(F)c(N)cc(-c2nc3c4c(nc(OC[C@@H]5C[C@H]6COCCN65)nc4c2F)N2C[C@H]4CC[C@H](N4)[C@H]2[C@H](C)O3)c1C(F)(F)F` (single isomer, unassigned) [159 (diast. 2)], for which the IC50 on KRAS G12D was found to be 0.23 nM; at KRAS WT [3], 48.1 nM; in test [4] (Homo sapiens, HPAC, 168 h), 23.8 nM; in test [5] (Homo sapiens, NCI-H1975, 168 h) it was 1240 nM.
The corresponding values for `Cc1c(F)c(N)cc(-c2nc3c4c(nc(OC[C@@H]5COC[C@H]6CCCN65)nc4c2F)N2C[C@H]4CC[C@H](N4)[C@H]2[C@H](C)O3)c1C(F)(F)F` (single isomer, unassigned) [121 (isomer 2)] are 0.27 nM, 49.3 nM, 17.5 nM and 533 nM.
`C#Cc1c(F)ccc2cccc(-c3nc4c5c(nc(OCC67CCN6CC(F)(F)C7)nc5c3F)N3C[C@H]5CC[C@H](N5)[C@H]3[C@H](C)O4)c12` (stereo partly drawn) [Compound 22, (5S,5aS,6S,9R)-12-((3,3-difluoro-1-azabicyclo[3.2.0]heptan-5-yl)methoxy)-2-(8-ethynyl-7-fluoronaphthalen-1-yl)-1-fluoro-5-methyl-5a,6,7,8,9,10-hexahydro-5H-4-oxa-3,10a,11,13,14-pentaaza-6,9-methanonaphtho[1,8-ab]heptane]: the results for the half-inhibitory concentration (IC50) (at KRAS WT [1] (read-out: KRas HTRF IC50); in test [2]) were 9.95 nM and 7410 nM, respectively.
Take `Cc1c(F)c(N)cc(-c2nc3c4c(nc(OC[C@]56CCC[C@H]5N(C)CCC6)nc4c2F)N2C[C@H]4CC[C@H](N4)[C@H]2[C@H](C)O3)c1C(F)(F)F` (single isomer, unassigned) [126 (isomer 4)]: the IC50 at KRAS G12D came to 0.37 nM; at KRAS WT [3] it was 90.3 nM; in test [4] (Homo sapiens, HPAC, 168 h) it was 24.9 nM; in test [5] (Homo sapiens, NCI-H1975, 168 h), 2250 nM.

The IC50 is the point on the concentration scale where inhibition reaches its midpoint.
